The source of these data is patent US20250290117A1, “MOLECULAR PHENOTYPIC ANTIMICROBIAL SUSCEPTIBILITY TESTING” (priority 2024, published 2025).

The subject of one assay is Escherichia coli. Description: Molecular phenotypic antimicrobial susceptibility test (extraction or DNA purification prior to PCR). Type of assay: cell-based. The procedure, abridged: (§1)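 Growth of clinical isolates under antimicrobials held at breakpoint concentrations was scored by semi-quantitative PCR against drug-free control wells. Exposure ran 12-16 hours from a 0.5 McFarland inoculum.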

The test system of another assay is E. coli. The assay can be described thus: Molecular phenotypic antimicrobial susceptibility test with direct PCR (no extraction DNA purification step). Type of assay: cell-based, Escherichia coli.
In assay [1] the test system is pathogens of clinical samples. Description: Molecular phenotypic antimicrobial susceptibility test of clinical samples, direct PCR without a separate DNA purification step (Table 6). Type of assay: cell-based. The procedure, abridged:
as §1

[2] abbreviates: E. coli isolate 1, Ct at control (average) 21.238.
Setting [3] is: E. coli isolate 1, at sensitive breakpoint.
Where [4] appears, read: E. coli isolate 2, Ct at control (average) 21.270.
Where [5] appears, read: E. coli isolate 2, at sensitive breakpoint.
The mark [6] stands for this setting: E. coli isolate 3, Ct at control (average) 22.0995.
Where [7] appears, read: E. coli isolate 3, at sensitive breakpoint.
The mark [8] stands for this setting: E. coli isolate 4, Ct at control (average) 17.5733.
Where [9] appears, read: E. coli isolate 4, at sensitive breakpoint.
Where [10] appears, read: E. coli isolate 5, Ct at control (average) 21.0933.
The mark [11] stands for this setting: E. coli isolate 5, at sensitive breakpoint.
The mark [12] stands for this setting: E. coli #1 - WDCM 00090 - 6.2×E3, specimen with <10,000 cells/mL, direct PCR after 16 hours of incubation.
[13] abbreviates: E. coli #1 - WDCM 00090 - 6.2×E3, specimen with <10,000 cells/mL, direct PCR after 16 hours of incubation, Ct at control 13.787.
[14] abbreviates: E. coli #2 - WDCM 00090 - 6.2×E3, specimen with <10,000 cells/mL, direct PCR after 16 hours of incubation.
[15] abbreviates: E. coli #2 - WDCM 00090 - 6.2×E3, specimen with <10,000 cells/mL, direct PCR after 16 hours of incubation, Ct at control 13.46.
The mark [16] stands for this setting: E. coli isolate JJ1887, direct PCR, Ct at control (average) 12.832.
Setting [17] is: E. coli isolate JJ1887, direct PCR, at sensitive breakpoint.
The mark [18] stands for this setting: E. coli, clinical sample of r10-r24.
[19] abbreviates: E. coli, clinical sample of r158-r172.
[20] abbreviates: K. aerogenes, clinical sample of r136-r150.
Setting [21] is: K. pneumoniae, clinical sample of r121-r135.
Where [22] appears, read: M. morganii, clinical sample of r55-r69.
Where [23] appears, read: M. morganii, clinical sample of r70-r84.
Setting [24] is: P. mirabilis, clinical sample of r25-r39.
[25] abbreviates: P. mirabilis, clinical sample of r40-r54.

As to `Cc1nnc(SCC2=C(C(=O)O)N3C(=O)[C@@H](NC(=O)Cn4cnnn4)[C@H]3SC2)s1` [Cefazolin], the “Ct at Sensitive Breakpoint” value with Escherichia coli (setting [2]) was 20.925; with Escherichia coli (setting [4]) it was 19.313; in the assay on Escherichia coli (setting [6]), 20.834; in the assay on Escherichia coli (setting [8]), 17.23; in the assay on Escherichia coli (setting [10]), 25.36; in the assay on E. coli (setting [13]), 25.72. The results for the “Ct at Sensitive Breakpoint” value in the assay with E. coli (setting [15]) and with E. coli (setting [16]) were 26.56 and 12.804, respectively. The “Molecular Antimicrobial Susceptibility Result” value is given as “Resistant” with Escherichia coli (setting [3]); “Resistant” in the assay with Escherichia coli (setting [5]); “Resistant” with Escherichia coli (setting [7]); “Resistant” in the assay on Escherichia coli (setting [9]); “Sensitive (Antimicrobial wells with pathogen load detected below the control wells (typically >2 cycle thresholds later) may be reported as Sensitive)” in the assay on Escherichia coli (setting [11]); “Sensitive (Antimicrobial wells with pathogen load detected below the control wells (typically >2 cycle thresholds later) may be reported as Sensitive)” in the assay on E. coli (setting [12]). Moreover, the figures for the “Molecular Antimicrobial Susceptibility Result” value with E. coli (setting [14]) and in the assay with E. coli (setting [17]) were “Sensitive (Antimicrobial wells with pathogen load detected below the control wells (typically >2 cycle thresholds later) may be reported as Sensitive)” and “Resistant”, respectively. Also, the “Molecular Antibiotic Susceptibility Result” value is “Sensitive (Antimicrobial wells with pathogen load detected below the control wells (typically >2 cycle thresholds later) may be reported as Sensitive)” in assay [1] (setting [18]); “Sensitive (Antimicrobial wells with pathogen load detected below the control wells (typically >2 cycle thresholds later) may be reported as Sensitive)” in assay [1] (setting [19]); “Sensitive (Antimicrobial wells with pathogen load detected below the control wells (typically >2 cycle thresholds later) may be reported as Sensitive)” in assay [1] (setting [20]); “Sensitive (Antimicrobial wells with pathogen load detected below the control wells (typically >2 cycle thresholds later) may be reported as Sensitive)” in assay [1] (setting [21]); “Resistant” in assay [1] (setting [22]); “Resistant” in assay [1] (setting [23]). The “Molecular Antibiotic Susceptibility Result” value in assay [1] (setting [24]) and in assay [1] (setting [25]) was “Sensitive (Antimicrobial wells with pathogen load detected below the control wells (typically >2 cycle thresholds later) may be reported as Sensitive)” in each case.
On to `CO/N=C(\C(=O)N[C@@H]1C(=O)N2C(C(=O)[O-])=C(C[N+]3(C)CCCC3)CS[C@H]12)c1csc(N)n1` [Cefepime], for which the “Ct at Sensitive Breakpoint” value in the assay with Escherichia coli (setting [8]) was 17.09; with Escherichia coli (setting [10]), 26.77; in the assay on E. coli (setting [16]), 12.796. In addition, the results for the “Molecular Antimicrobial Susceptibility Result” value in the assay with Escherichia coli (setting [9]), with Escherichia coli (setting [11]) and in the assay on E. coli (setting [17]) were “Resistant”, “Sensitive (Antimicrobial wells with pathogen load detected below the control wells (typically >2 cycle thresholds later) may be reported as Sensitive)” and “Resistant”, respectively. For the same compound, the “Molecular Antibiotic Susceptibility Result” value in assay [1] (setting [18]), in assay [1] (setting [19]), in assay [1] (setting [20]), in assay [1] (setting [21]), in assay [1] (setting [22]) and in assay [1] (setting [23]) was “Sensitive (Antimicrobial wells with pathogen load detected below the control wells (typically >2 cycle thresholds later) may be reported as Sensitive)” in each case. Also, the “Molecular Antibiotic Susceptibility Result” value in assay [1] (setting [24]) and in assay [1] (setting [25]) was “Sensitive (Antimicrobial wells with pathogen load detected below the control wells (typically >2 cycle thresholds later) may be reported as Sensitive)” each time.
`CO/N=C(\C(=O)N[C@@H]1C(=O)N2C(C(=O)O)=C(CSc3nc(=O)c(=O)[nH]n3C)CS[C@H]12)c1csc(N)n1` [Ceftriaxone]: the “Ct at Sensitive Breakpoint” value in the assay with Escherichia coli (setting [2]) is on record as 19.368; with Escherichia coli (setting [4]), 20.665; in the assay with Escherichia coli (setting [6]) it was 18.979; in the assay on Escherichia coli (setting [8]), 17.74; with Escherichia coli (setting [10]), 25.48; in the assay with E. coli (setting [13]), 26.31. In addition, the “Ct at Sensitive Breakpoint” value with E. coli (setting [15]) was determined as 27.18; in the assay on E. coli (setting [16]), 12.353. The “Molecular Antimicrobial Susceptibility Result” value in the assay on Escherichia coli (setting [3]) was “Resistant”; with Escherichia coli (setting [5]), “Resistant”; in the assay on Escherichia coli (setting [7]) it was “Resistant”; with Escherichia coli (setting [9]) it was “Resistant”; in the assay with Escherichia coli (setting [11]), “Sensitive (Antimicrobial wells with pathogen load detected below the control wells (typically >2 cycle thresholds later) may be reported as Sensitive)”; in the assay with E. coli (setting [12]), “Sensitive (Antimicrobial wells with pathogen load detected below the control wells (typically >2 cycle thresholds later) may be reported as Sensitive)”. The “Molecular Antimicrobial Susceptibility Result” value is recorded as “Sensitive (Antimicrobial wells with pathogen load detected below the control wells (typically >2 cycle thresholds later) may be reported as Sensitive)” in the assay with E. coli (setting [14]) and “Resistant” in the assay on E. coli (setting [17]). Further, the “Molecular Antibiotic Susceptibility Result” value in assay [1] (setting [18]), in assay [1] (setting [19]), in assay [1] (setting [20]), in assay [1] (setting [21]), in assay [1] (setting [22]) and in assay [1] (setting [23]) was “Sensitive (Antimicrobial wells with pathogen load detected below the control wells (typically >2 cycle thresholds later) may be reported as Sensitive)” throughout. The “Molecular Antibiotic Susceptibility Result” value in assay [1] (setting [24]) and in assay [1] (setting [25]) was “Sensitive (Antimicrobial wells with pathogen load detected below the control wells (typically >2 cycle thresholds later) may be reported as Sensitive)” in each case. Also, the Ct in assay [1] (E. coli, clinical sample of r10-r24, Ct control avg 12.97) was 24.791; in assay [1] (E. coli, clinical sample of r158-r172, Ct control avg 12.894), 30.396; in assay [1] (K. aerogenes, clinical sample of r136-r150, Ct control avg 13.854), 29.137; in assay [1] (K. pneumoniae, clinical sample of r121-r135, Ct control avg […]), 28.004; in assay [1] (M. morganii, clinical sample of r55-r69, Ct control avg 12.09), 29.28; in assay [1] (M. morganii, clinical sample of r70-r84, Ct control avg 11.677) it was 28.625. Further, the Ct is recorded as 22.976 in assay [1] (P. mirabilis, clinical sample of r25-r39, Ct control avg 11.801) and 28.394 in assay [1] (P. mirabilis, clinical sample of r40-r54, Ct control avg 10.06).
